The values below come from patent JPH07291935A, “スピロ化合物、その製造法および剤” (Takeda Chemical Industries Ltd, priority 1994, dated 1995).

What is called pIC50 is the negative decadic logarithm of the IC50, by convention in mol/L.

pIC50: −log10 of the molar value. Like-named read-outs stand apart in the source and are kept apart here.

Assay [1] concerns 45Ca2+ uptake [45Ca2+取り込み]. The assay is described as follows: 45Ca2+ uptake inhibition (veratrine-stimulated). It is filed as biochemical. The note with it: 10 μM; rat cerebral cortex crude synaptosomes; veratrine 30 μM; 37℃, 10 min.
Assay [2] has as its system norepinephrine (NE) uptake [ノルエピネフリン(NE)の取り込み]. The experiment in a line: norepinephrine (NE) uptake inhibition. It counts as biochemical. The note with it: rat cerebral cortex, 3H-NE as substrate.
The test system of assay [3] is serotonin (5-HT) uptake [セロトニン(5−HT)の取り込み]. The assay is described as follows: serotonin (5-HT) uptake inhibition. It is filed as biochemical. To be noted: rat whole brain preparation, 3H-5-HT 10 nM, 37℃, 5 min.
Assay [4] has as its target T1, type B monoamine oxidase (MAO-B) [B型モノアミン酸化酵素(MAO−B)] (Rattus norvegicus, UniProt P19643).
T1 sequence (P19643 1-520): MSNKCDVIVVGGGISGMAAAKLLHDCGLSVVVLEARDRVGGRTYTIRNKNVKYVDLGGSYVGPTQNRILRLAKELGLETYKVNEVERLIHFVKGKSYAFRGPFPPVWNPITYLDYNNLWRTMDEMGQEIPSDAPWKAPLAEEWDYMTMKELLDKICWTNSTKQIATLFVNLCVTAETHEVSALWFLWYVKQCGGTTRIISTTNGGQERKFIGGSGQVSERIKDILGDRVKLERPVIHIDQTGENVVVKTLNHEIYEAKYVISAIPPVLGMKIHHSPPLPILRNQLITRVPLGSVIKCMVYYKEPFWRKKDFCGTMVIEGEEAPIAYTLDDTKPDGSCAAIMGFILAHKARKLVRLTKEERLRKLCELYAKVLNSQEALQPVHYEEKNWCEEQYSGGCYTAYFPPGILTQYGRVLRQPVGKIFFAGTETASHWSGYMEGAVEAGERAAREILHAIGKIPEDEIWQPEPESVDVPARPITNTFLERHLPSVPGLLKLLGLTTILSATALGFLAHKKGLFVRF
The experiment in a line: biochemical.

The mark [5] stands for this setting: MAO-B, rat whole brain homogenate, 14C-phenylethylamine 10 μM, 37℃, 5 min, read-out: IC50.

Take `COc1ccc2c(c1)CCC1(CCCCN1CCCc1ccccc1)C2` (centres unmarked) [実施例5−9, 3,4−ジヒドロ−6−メトキシ−1′−(3−フェニルプロピル)スピロ〔ナフタレン−2(1H),2′−ピペリジン〕 塩酸塩]: in assay [1], the “% inhibition rate (45Ca uptake)” value stood at 92%. Consider `COc1ccc2c(c1)CCC1(CCCCN1CCOc1ccccc1)C2` (centres unmarked) [実施例5−10, 3,4−ジヒドロ−6−メトキシ−1′−(2−フェノキシエチル)スピロ〔ナフタレン−2(1H),2′−ピペリジン〕 塩酸塩], for which the negative logarithm of the IC50 (pIC50) in assay [2] is 6.08; in assay [3], 8.02. Besides, in assay [1], the “% inhibition rate (45Ca uptake)” value came out at 88%. With `COc1ccc2c(c1)CCC1(CCCCN1CCCCN1C(=O)c3ccccc3C1=O)C2` (centres unmarked) [実施例5−11, 3,4−ジヒドロ−6−メトキシ−1′−(4−フタルイミドブチル)スピロ〔ナフタレン−2(1H),2′−ピペリジン〕 塩酸塩], the results for the pIC50 in assay [2] and in assay [3] were 6.30 and 8.35, respectively. As to `COc1ccc2c(c1)CCC1(CCCCN1CCCC1CCN(Cc3ccccc3)CC1)C2` (centres unmarked) [実施例5−14, 3,4−ジヒドロ−6−メトキシ−1′−〔3−(1−フェニルメチルピペリジン−4−イル)プロピル〕スピロ〔ナフタレン−2(1H),2′−ピペリジン〕 2塩酸塩], the negative-log IC50 (pIC50) in assay [2] is 6.74; in assay [3] it was 7.96. Besides, the “% inhibition rate (45Ca uptake)” value in assay [1] is 74%. As to `COc1cccc(N2CCN(CCN3CCCCC34CCc3cc(OC)ccc3C4)CC2)c1` (centres unmarked) [実施例7−1, 3,4−ジヒドロ−6−メトキシ−1’−〔2−(4−(3−メトキシフェニル)ピペラジン−1−イル)エチル〕スピロ〔ナフタレン−2(1H),2’−ピペリジン〕 2塩酸塩], the pIC50 in assay [2] is 5.32; in assay [3], 7.66. In addition, in assay [1], the “% inhibition rate (45Ca uptake)” value was 90%.

As to `COc1ccc2c(c1)CCC1(CCCCN1CCN1CCN(c3ccccc3Cl)CC1)C2` (centres unmarked) [実施例7−3, 1′−〔2−(4−(2−クロロフェニル)ピペラジン−1−イル)エチル〕−3,4−ジヒドロ−6−メトキシスピロ〔ナフタレン−2(1H),2′−ピペリジン〕 2塩酸塩], the “% inhibition rate (45Ca uptake)” value in assay [1] amounted to 95%. For the compound `COc1ccc2c(c1)CCC1(CCCCN1CCN1CCN(c3ccc(F)cc3)CC1)C2` (centres unmarked) [実施例7−5, 1′−〔2−(4−(4−フルオロフェニル)ピペラジン−1−イル)エチル〕−3,4−ジヒドロ−6−メトキシスピロ〔ナフタレン−2(1H),2′−ピペリジン〕 2塩酸塩], the pIC50 was 5.47 in assay [2] and 7.52 in assay [3]. Also, the “% inhibition rate (45Ca uptake)” value in assay [1] was found to be 87%. Turning to `COc1ccc2c(c1)CCC1(CCCCN1CCN1CCN(c3cccc(C(F)(F)F)c3)CC1)C2` (centres unmarked) [実施例7−6, 1′−〔2−(4−(3−トリフルオロメチルフェニル)ピペラジン−1−イル)エチル〕−3,4−ジヒドロ−6−メトキシスピロ〔ナフタレン−2(1H),2′−ピペリジン〕 2塩酸塩], the “% inhibition rate (45Ca uptake)” value in assay [1] came out at 106%.

In the case of `COc1ccc2c(c1)CCC1(CCCCN1CCN1CCC(c3ccccc3)CC1)C2` (centres unmarked) [実施例7−9, 3,4−ジヒドロ−6−メトキシ−1′−〔2−(4−フェニルピペリジン−1−イル)エチル〕スピロ〔ナフタレン−2(1H),2′−ピペリジン〕 2塩酸塩], the “% inhibition rate (45Ca uptake)” value in assay [1] is 109%. For `CCCN1CCCCC12CCc1cc(OCc3ccccc3)ccc1C2` (centres unmarked) [実施例9−1, 3,4−ジヒドロ−6−フェニルメトキシ−1’−プロピルスピロ〔ナフタレン−2(1H),2’−ピペリジン〕 塩酸塩], the pIC50 in assay [4] (setting [5]) is 6.55. On the same count and under the same terms, to `CCCN1CCCCC12CCc1cc(OCc3ccccc3Cl)ccc1C2` (centres unmarked) [実施例9−6, 6−(2−クロロフェニルメトキシ)−3,4−ジヒドロ−1′−プロピルスピロ〔ナフタレン−2(1H),2′−ピペリジン〕 塩酸塩] belongs 5.60. For `CCCN1CCCCC12CCc1cc(OCc3cccc(Cl)c3)ccc1C2` (centres unmarked) [実施例9−7, 6−(3−クロロフェニルメトキシ)−3,4−ジヒドロ−1′−プロピルスピロ〔ナフタレン−2(1H),2′−ピペリジン〕 塩酸塩], the values for the pIC50 in assay [2], in assay [4] (setting [5]) and in assay [3] were 7.23, 5.79 and 6.15, respectively. Consider `CCCN1CCCCC12CCc1cc(OCc3ccc(Cl)cc3)ccc1C2` (centres unmarked) [実施例9−8, 6−(4−クロロフェニルメトキシ)−3,4−ジヒドロ−1′−プロピルスピロ〔ナフタレン−2(1H),2′−ピペリジン〕 塩酸塩], for which the negative-log IC50 (pIC50) in assay [2] was 7.46; in assay [3], 6.74.

Take `CCCN1CCCCC12CCc1cc(OCc3cccc(C#N)c3)ccc1C2` (centres unmarked) [実施例9−9, 6−(3−シアノフェニルメトキシ)−3,4−ジヒドロ−1′−プロピルスピロ〔ナフタレン−2(1H),2′−ピペリジン〕 塩酸塩]: the pIC50 in assay [2] is 7.21; in assay [3], 6.55. Turning to `CCCN1CCCCC12CCc1cc(OCCc3ccccc3)ccc1C2` (centres unmarked) [実施例9−16, 3,4−ジヒドロ−6−(2−フェニルエトキシ)−1′−プロピルスピロ〔ナフタレン−2(1H),2′−ピペリジン〕 2塩酸塩], the pIC50 in assay [4] (setting [5]) was 6.23. Still for that read-out and setting: to `CCCN1CCCCC12CCc1cc(OCc3ccccc3C)ccc1C2` (centres unmarked) [実施例9−18, 3,4−ジヒドロ−6−(2−メチルフェニルメトキシ)−1′−プロピルスピロ〔ナフタレン−2(1H),2′−ピペリジン〕 塩酸塩] belongs 5.83. In the case of `CCCN1CCCCC12CCc1cc(OCc3ccccc3F)ccc1C2` (centres unmarked) [実施例9−19, 6−(2−フルオロフェニルメトキシ)−3,4−ジヒドロ−1′−プロピルスピロ〔ナフタレン−2(1H),2′−ピペリジン〕 塩酸塩], the pIC50 was 7.05 in assay [2], 6.05 in assay [4] (setting [5]) and 6.10 in assay [3]. In the case of `CCCN1CCCCC12CCc1cc(OCc3ccccc3C#N)ccc1C2` (centres unmarked) [実施例9−20, 6−(2−シアノフェニルメトキシ)−3,4−ジヒドロ−1′−プロピルスピロ〔ナフタレン−2(1H),2′−ピペリジン〕 塩酸塩], the pIC50 in assay [2] is 7.27; in assay [3], 6.49. As to `CCCN1CCCCC12CCc1cc(OCc3ccc(F)cc3)ccc1C2` (centres unmarked) [実施例9−21, 6−(4−フルオロフェニルメトキシ)−3,4−ジヒドロ−1′−プロピルスピロ〔ナフタレン−2(1H),2′−ピペリジン〕 塩酸塩], the pIC50 is 7.01 in assay [2], 6.17 in assay [4] (setting [5]) and 6.47 in assay [3]. For the compound `CCCN1CCCCC12CCc1cc(OCc3ccc(Cl)cc3Cl)ccc1C2` (centres unmarked) [実施例9−22, 6−(2,4−ジクロロフェニルメトキシ)−3,4−ジヒドロ−1′−プロピルスピロ〔ナフタレン−2(1H),2′−ピペリジン〕 塩酸塩], the pIC50 in assay [2] was 7.17; in assay [3] it was 6.72. Consider `CCCN1CCCCC12CCc1cc(OCc3ccccc3OC)ccc1C2` (centres unmarked) [実施例9−23, 3,4−ジヒドロ−6−(2−メトキシフェニルメトキシ)−1′−プロピルスピロ〔ナフタレン−2(1H),2′−ピペリジン〕 塩酸塩], for which, in assay [4] (setting [5]), the negative-log IC50 (pIC50) was 5.55. On the same count and under the same terms, to `NC(=O)CN1CCCCC12CCc1cc(OCc3ccc(F)cc3)ccc1C2` (centres unmarked) [実施例9−32, {6−(4−フルオロフェニルメトキシ−3,4−ジヒドロスピロ〔ナフタレン−2(1H),2′−ピペリジン〕}−1′−イルアセトアミド 塩酸塩] belongs 6.28.

As to `CCCN1CCCCC12CCc1cc(OCc3ccsc3)ccc1C2` (centres unmarked) [実施例9−45, 3,4−ジヒドロ−1′−プロピル−6−(3−チエニルメトキシ)スピロ〔ナフタレン−2(1H),2′−ピペリジン〕 塩酸塩], the negative-log IC50 (pIC50) in assay [4] is 7.18.

Take `COc1ccc2c(c1)CC[C@@]1(CCCCN1CCN1CCN(c3cccc(C(F)(F)F)c3)CC1)C2` [実施例30−2, (S)−(−)−1’−〔2−4−(3−トリフルオロメチルフェニル)ピペラジン−1−イル)エチル〕−3,4−ジヒドロ−6−メトキシスピロ〔ナフタレン−2(1H),2’−ピペリジン〕 2塩酸塩]: the pIC50 in assay [2] is 6.55; in assay [3], 8.02.
